Literature values as cited in patent US20070092568A1 (priority 2005, published 2007).
Structures can show the parent of a compound that is named as a salt.

For `COc1ccc2c3c1O[C@H]1C[C@@H](O)C=C[C@@]31CCN(C)C2` [Galantamine hydrobromide, (4aS,6R,8aS)-4a,5,9,10,11,12-hexahydro-3-methoxy-11-methyl-6H-benzofuro[3a,3,2-ef][2]benzazepin-6-ol], the Solubility in water is given as “sparingly soluble in water”.
